In the NIST ThermoML archive (doi:10.1021/acs.jced.8b00521):

Test: xn = mol fraction of the nth substance listed
Details: Liquid; for viscosity: Capillary tube (Ostwald / Ubbelohde) method; for mass density: Vibrating tube method

CCCCCCCC(=O)OCC [ethyl octanoate] + CCCCCCCCCCCC(=O)OC
Details	mass density, 303.15 K [kg/m3]	mass density, 313.15 K [kg/m3]	viscosity, 303.15 K [mPa·s]	viscosity, 313.15 K [mPa·s]
100 kPa, x2 = 0.1	859	850	1.41	1.22
100 kPa, x2 = 0.1999	859	850	1.52	1.31
100 kPa, x2 = 0.3001	859	851	1.61	1.39
100 kPa, x2 = 0.4	860	851	1.71	1.46
100 kPa, x2 = 0.4999	860	851	1.82	1.55
100 kPa, x2 = 0.6001	860	852	1.96	1.65
100 kPa, x2 = 0.6999	861	852	2.08	1.75
100 kPa, x2 = 0.8001	861	852	2.19	1.85
100 kPa, x2 = 0.9	862	853	2.32	1.95
2940 kPa, x2 = 0.4999	862	–	1.9	–
2950 kPa, x2 = 0.6001	–	853	–	1.71
2960 kPa, x2 = 0.1	860	–	1.46	–
2960 kPa, x2 = 0.3001	861	–	1.66	–
2960 kPa, x2 = 0.8001	–	854	–	1.93
2970 kPa, x2 = 0.6999	–	854	–	1.82
2980 kPa, x2 = 0.1	–	851	–	1.25
2980 kPa, x2 = 0.1999	860	852	1.56	1.34
2980 kPa, x2 = 0.4	861	–	1.75	–
2990 kPa, x2 = 0.3001	–	852	–	1.43
2990 kPa, x2 = 0.6001	862	–	2.05	–
2990 kPa, x2 = 0.9	863	–	2.4	–
3000 kPa, x2 = 0.8001	863	–	2.28	–
3030 kPa, x2 = 0.4	–	853	–	1.52
3040 kPa, x2 = 0.4999	–	853	–	1.59
3070 kPa, x2 = 0.9	–	855	–	2.03
3080 kPa, x2 = 0.6999	862	–	2.15	–
5960 kPa, x2 = 0.3001	–	854	–	1.48
5980 kPa, x2 = 0.8001	865	–	2.37	–
5990 kPa, x2 = 0.6999	–	856	–	1.89
5990 kPa, x2 = 0.8001	–	856	–	1.99
6000 kPa, x2 = 0.1	–	853	–	1.29
6000 kPa, x2 = 0.1999	–	854	–	1.38
6000 kPa, x2 = 0.4999	863	–	1.96	–
6000 kPa, x2 = 0.6001	–	855	–	1.76
6010 kPa, x2 = 0.1	861	–	1.51	–
6020 kPa, x2 = 0.6001	864	–	2.12	–
6030 kPa, x2 = 0.1999	862	–	1.6	–
6040 kPa, x2 = 0.6999	864	–	2.24	–
6050 kPa, x2 = 0.4	–	854	–	1.56
6060 kPa, x2 = 0.9	865	–	2.48	–
6080 kPa, x2 = 0.3001	863	–	1.71	–
6090 kPa, x2 = 0.9	–	857	–	2.09
6100 kPa, x2 = 0.4	863	–	1.82	–
6100 kPa, x2 = 0.4999	–	855	–	1.65
8950 kPa, x2 = 0.8001	867	–	2.44	–
8980 kPa, x2 = 0.1999	863	–	1.66	–
8980 kPa, x2 = 0.3001	864	–	1.78	–
8990 kPa, x2 = 0.4	865	–	1.88	–
8990 kPa, x2 = 0.9	868	–	2.56	–
9030 kPa, x2 = 0.1	863	–	1.55	–
9040 kPa, x2 = 0.6999	866	–	2.31	–
9050 kPa, x2 = 0.6001	866	–	2.19	–
9090 kPa, x2 = 0.4999	865	–	2.02	–
11960 kPa, x2 = 0.6999	868	–	2.38	–
11960 kPa, x2 = 0.8001	869	–	2.5	–
11980 kPa, x2 = 0.1	864	–	1.59	–
12000 kPa, x2 = 0.3001	866	–	1.83	–
12010 kPa, x2 = 0.6001	867	–	2.24	–
12020 kPa, x2 = 0.1999	865	–	1.7	–
12020 kPa, x2 = 0.4999	867	–	2.08	–
12030 kPa, x2 = 0.9	869	–	2.64	–
12040 kPa, x2 = 0.4	866	–	1.94	–
14940 kPa, x2 = 0.6001	869	–	2.3	–
14970 kPa, x2 = 0.6999	870	–	2.44	–
14970 kPa, x2 = 0.8001	870	–	2.56	–
14980 kPa, x2 = 0.9	871	–	2.7	–
15020 kPa, x2 = 0.1	866	–	1.64	–
15040 kPa, x2 = 0.4999	868	–	2.13	–
15070 kPa, x2 = 0.1999	867	–	1.75	–
15070 kPa, x2 = 0.3001	867	–	1.88	–
15080 kPa, x2 = 0.4	868	–	2	–
